Source: PMC9603901, “Therapeutic Potential of Antimicrobial Peptide PN5 against Multidrug-Resistant E. coli and Anti-Inflammatory Activity in a Septic Mouse Model” (Microbiology Spectrum, 2022)
Values after ≈ are worked out from the molar mass of the structure shown. Where two headings read alike, the source gives them in different places.

Key:
E. coli ATCC 25922 = test: microbe, parasite or virus in culture; type: cell-based, Escherichia coli; conditions: Escherichia coli, ATCC25922, microdilution, LB, 2 × 10^5 CFU mL^−1, 18 to 24 h, 37°C, three independent experiments, read-out: MIC
Experimental: (§1) Bacterial cells were cultured at 37°C in the appropriate culture media with shaking (180 rpm). Luria-Bertani broth (LB) (244620; BD Difco) was used for E. coli ATCC 25922, ASEC strains, and B. subtilis KCTC 2217. Nutrient broth (NB) (234000; BD Difco) was used for P. aeruginosa ATCC 27853, S. Typhimurium KCTC 1926, and A. baumannii KCTC 2508. Tryptic soy broth (TSB) (211825; BD Difco) was used for S. aureus ATCC 25923. Finally, brain heart infusion (BHI) (237500; BD Difco) was used for L. monocytogenes KCTC 3710. The antimicrobial activity of each peptide was determined using microdilution assays. To this end, 2-fold serial dilution series of each peptide (from 1 to 64 μM) were added to duplicate media with 10 mM sodium phosphate buffer (pH 7.4). Fifty microliters of the peptide and antibiotic solution was added to each well of a 96-well plate (32096, surface nontreatment; SPL Life Sciences). Then, 50 μL of 2 × 10^5 CFU mL^−1 of bacteria was added to each well, and the samples were incubated for 18 to 24 h without shaking at 37°C.

MDR E. coli ASEC 10 [1] = test: microbe, parasite or virus in culture; type: cell-based, Escherichia coli; conditions: Escherichia coli, microdilution, LB, 18 to 24 h, 37°C, three independent experiments, read-out: MIC
Experimental: as §1

MDR E. coli ASEC 11 = test: microbe, parasite or virus in culture; type: cell-based, Escherichia coli; conditions: Escherichia coli, microdilution, LB, 18 to 24 h, 37°C, three independent experiments, read-out: MIC
Experimental: as §1

MDR E. coli ASEC 12 [2] = test: microbe, parasite or virus in culture; type: cell-based, Escherichia coli; conditions: Escherichia coli, microdilution, LB, 18 to 24 h, 37°C, three independent experiments, read-out: MIC
Experimental: as §1

MDR E. coli ASEC 13 [3] = test: microbe, parasite or virus in culture; type: cell-based, Escherichia coli; conditions: Escherichia coli, microdilution, LB, 18 to 24 h, 37°C, three independent experiments, read-out: MIC
Experimental: as §1

MDR E. coli ASEC 14 = test: microbe, parasite or virus in culture; type: cell-based, Escherichia coli; conditions: Escherichia coli, microdilution, LB, 18 to 24 h, 37°C, three independent experiments, read-out: MIC
Experimental: as §1

MDR E. coli ASEC 15 = test: microbe, parasite or virus in culture; type: cell-based, Escherichia coli; conditions: Escherichia coli, microdilution, LB, 18 to 24 h, 37°C, three independent experiments, read-out: MIC
Experimental: as §1

MDR E. coli ASEC 16 = test: microbe, parasite or virus in culture; type: cell-based, Escherichia coli; conditions: Escherichia coli, microdilution, LB, 18 to 24 h, 37°C, three independent experiments, read-out: MIC
Experimental: as §1

MDR E. coli ASEC 17 = test: microbe, parasite or virus in culture; type: cell-based, Escherichia coli; conditions: Escherichia coli, microdilution, LB, 18 to 24 h, 37°C, three independent experiments, read-out: MIC
Experimental: as §1

MDR E. coli ASEC 18 = test: microbe, parasite or virus in culture; type: cell-based, Escherichia coli; conditions: Escherichia coli, microdilution, LB, 18 to 24 h, 37°C, three independent experiments, read-out: MIC
Experimental: as §1

MDR E. coli ASEC 19 = test: microbe, parasite or virus in culture; type: cell-based, Escherichia coli; conditions: Escherichia coli, microdilution, LB, 18 to 24 h, 37°C, three independent experiments, read-out: MIC
Experimental: as §1

MDR E. coli ASEC 2 [4] = test: microbe, parasite or virus in culture; type: cell-based, Escherichia coli; conditions: Escherichia coli, microdilution, LB, 18 to 24 h, 37°C, three independent experiments, read-out: MIC
Experimental: as §1

MDR E. coli ASEC 3 [5] = test: microbe, parasite or virus in culture; type: cell-based, Escherichia coli; conditions: Escherichia coli, microdilution, LB, 18 to 24 h, 37°C, three independent experiments, read-out: MIC
Experimental: as §1

MDR E. coli ASEC 4 [6] = test: microbe, parasite or virus in culture; type: cell-based, Escherichia coli; conditions: Escherichia coli, microdilution, LB, 18 to 24 h, 37°C, three independent experiments, read-out: MIC
Experimental: as §1

MDR E. coli ASEC 5 = test: microbe, parasite or virus in culture; type: cell-based, Escherichia coli; conditions: Escherichia coli, microdilution, LB, 18 to 24 h, 37°C, three independent experiments, read-out: MIC
Experimental: as §1

MDR E. coli ASEC 6 [7] = test: microbe, parasite or virus in culture; type: cell-based, Escherichia coli; conditions: Escherichia coli, microdilution, LB, 18 to 24 h, 37°C, three independent experiments, read-out: MIC
Experimental: as §1

MDR E. coli ASEC 7 = test: microbe, parasite or virus in culture; type: cell-based, Escherichia coli; conditions: Escherichia coli, microdilution, LB, 18 to 24 h, 37°C, three independent experiments, read-out: MIC
Experimental: as §1

MDR E. coli ASEC 8 [8] = test: microbe, parasite or virus in culture; type: cell-based, Escherichia coli; conditions: Escherichia coli, microdilution, LB, 18 to 24 h, 37°C, three independent experiments, read-out: MIC
Experimental: as §1

MDR E. coli ASEC 9 = test: microbe, parasite or virus in culture; type: cell-based, Escherichia coli; conditions: Escherichia coli, microdilution, LB, 18 to 24 h, 37°C, three independent experiments, read-out: MIC
Experimental: as §1

MDR E. coli ASEC 2 [9] = tested on: MDR E. coli ASEC 2; parameters: method as in Asan hospital; key to susceptibility category: S: susceptible; R: resistant; I: intermediate; conditions: ref Asan hospital, cited from earlier work; for MIC: ASEC 2 (NDM-7), resistance information of clinical isolate; for susceptibility category: ASEC 2
MDR E. coli ASEC 3 [10] = tested on: MDR E. coli ASEC 3; parameters: method as in Asan hospital; key to susceptibility category: S: susceptible; R: resistant; I: intermediate; conditions: ref Asan hospital, cited from earlier work; for MIC: ASEC 3 (NDM-5), resistance information of clinical isolate; for susceptibility category: ASEC 3
MDR E. coli ASEC 4 [11] = tested on: MDR E. coli ASEC 4; parameters: method as in Asan hospital; key to susceptibility category: S: susceptible; R: resistant; I: intermediate; conditions: ref Asan hospital, cited from earlier work; for MIC: ASEC 4 (ESBL), resistance information of clinical isolate; for susceptibility category: ASEC 4
MDR E. coli ASEC 6 [12] = tested on: MDR E. coli ASEC 6; parameters: method as in Asan hospital; key to susceptibility category: S: susceptible; R: resistant; I: intermediate; conditions: ref Asan hospital, cited from earlier work; for MIC: ASEC 6 (ESBL), resistance information of clinical isolate; for susceptibility category: ASEC 6
MDR E. coli ASEC 8 [13] = tested on: MDR E. coli ASEC 8; parameters: method as in Asan hospital; key to susceptibility category: S: susceptible; R: resistant; I: intermediate; conditions: ref Asan hospital, cited from earlier work; for MIC: ASEC 8 (ESBL), resistance information of clinical isolate; for susceptibility category: ASEC 8
MDR E. coli ASEC 10 [14] = tested on: MDR E. coli ASEC 10; parameters: method as in Asan hospital; key to susceptibility category: S: susceptible; R: resistant; I: intermediate; conditions: ref Asan hospital, cited from earlier work; for MIC: ASEC 10 (ESBL), resistance information of clinical isolate; for susceptibility category: ASEC 10
MDR E. coli ASEC 12 [15] = tested on: MDR E. coli ASEC 12; parameters: method as in Asan hospital; key to susceptibility category: S: susceptible; R: resistant; I: intermediate; conditions: ref Asan hospital, cited from earlier work; for MIC: ASEC 12 (AmpC), resistance information of clinical isolate; for susceptibility category: ASEC 12
MDR E. coli ASEC 13 [16] = tested on: MDR E. coli ASEC 13; parameters: method as in Asan hospital; key to susceptibility category: S: susceptible; R: resistant; I: intermediate; conditions: ref Asan hospital, cited from earlier work; for MIC: ASEC 13 (AmpC), resistance information of clinical isolate; for susceptibility category: ASEC 13

Compound | MIC (E. coli ATCC 25922) [µM] | MIC (MDR E. coli ASEC 10 [1]) [µM] | MIC (MDR E. coli ASEC 11) [µM] | MIC (MDR E. coli ASEC 12 [2]) [µM] | MIC (MDR E. coli ASEC 13 [3]) [µM] | MIC (MDR E. coli ASEC 14) [µM] | MIC (MDR E. coli ASEC 15) [µM] | MIC (MDR E. coli ASEC 16) [µM] | MIC (MDR E. coli ASEC 17) [µM] | MIC (MDR E. coli ASEC 18) [µM] | MIC (MDR E. coli ASEC 19) [µM] | MIC (MDR E. coli ASEC 2 [4]) [µM] | MIC (MDR E. coli ASEC 3 [5]) [µM] | MIC (MDR E. coli ASEC 4 [6]) [µM] | MIC (MDR E. coli ASEC 5) [µM] | MIC (MDR E. coli ASEC 6 [7]) [µM] | MIC (MDR E. coli ASEC 7) [µM] | MIC (MDR E. coli ASEC 8 [8]) [µM] | MIC (MDR E. coli ASEC 9) [µM] | MIC (MDR E. coli ASEC 2 [9]) [µg/mL] | other results
CO/N=C(\C(=O)N[C@@H]1C(=O)N2C(C(=O)O)=C(COC(C)=O)CS[C@H]12)c1csc(N)n1 [Cefotaxime] | < 1 | > 32 | > 32 | > 32 | > 32 | > 32 | > 32 | > 32 | > 32 | > 32 | > 32 | > 32 | > 32 | > 32 | > 32 | > 32 | > 32 | > 32 | > 32 | > 32 | susceptibility category (MDR E. coli ASEC 2 [9]): R; MIC (MDR E. coli ASEC 3 [10]): > 32 µg/mL; susceptibility category (MDR E. coli ASEC 3 [10]): R; MIC (MDR E. coli ASEC 4 [11]): > 32 µg/mL; susceptibility category (MDR E. coli ASEC 4 [11]): R; MIC (MDR E. coli ASEC 6 [12]): > 32 µg/mL; susceptibility category (MDR E. coli ASEC 6 [12]): R; MIC (MDR E. coli ASEC 8 [13]): > 32 µg/mL; susceptibility category (MDR E. coli ASEC 8 [13]): R; MIC (MDR E. coli ASEC 10 [14]): > 32 µg/mL; susceptibility category (MDR E. coli ASEC 10 [14]): R; MIC (MDR E. coli ASEC 12 [15]): > 32 µg/mL; susceptibility category (MDR E. coli ASEC 12 [15]): R; MIC (MDR E. coli ASEC 13 [16]): > 32 µg/mL; susceptibility category (MDR E. coli ASEC 13 [16]): R
CC(C)(O/N=C(\C(=O)N[C@@H]1C(=O)N2C(C(=O)[O-])=C(C[n+]3ccccc3)CS[C@H]12)c1csc(N)n1)C(=O)O [Ceftazidime] | < 1 | 32 (≈ 17.5 µg/mL) | > 32 | > 32 | > 32 | > 32 | > 32 | > 32 | > 32 | > 32 | > 32 | > 32 | > 32 | > 32 | > 32 | > 32 | 16 (≈ 8.75 µg/mL) | > 32 | > 32 | > 16 | susceptibility category (MDR E. coli ASEC 2 [9]): R; MIC (MDR E. coli ASEC 3 [10]): > 16 µg/mL; susceptibility category (MDR E. coli ASEC 3 [10]): R; MIC (MDR E. coli ASEC 4 [11]): > 16 µg/mL; susceptibility category (MDR E. coli ASEC 4 [11]): R; MIC (MDR E. coli ASEC 6 [12]): > 16 µg/mL; susceptibility category (MDR E. coli ASEC 6 [12]): R; MIC (MDR E. coli ASEC 8 [13]): > 16 µg/mL; susceptibility category (MDR E. coli ASEC 8 [13]): R; MIC (MDR E. coli ASEC 10 [14]): 16 µg/mL (≈ 29.3 µM); susceptibility category (MDR E. coli ASEC 10 [14]): R; MIC (MDR E. coli ASEC 12 [15]): 16 µg/mL (≈ 29.3 µM); susceptibility category (MDR E. coli ASEC 12 [15]): R; MIC (MDR E. coli ASEC 13 [16]): > 16 µg/mL; susceptibility category (MDR E. coli ASEC 13 [16]): R
